Format in all cases: functional
The subject of test [1] is Mus musculus. The test can be described thus: In vivo inhibition of NAMPT in human NCI-H1155 cells xenografted in Harlan nude mouse assessed as NAD+ level per mg of tissue at 10 mg/kg, po bid measured 7 hrs post second dose by LC-MS analysis (reference value: 20.08 to 57.97 pmol).
The test system of test [2] is Mus musculus. Put plainly: In vivo inhibition of NAMPT in human A2780 cells xenografted in Harlan nude mouse assessed as NAD+ level per mg of tissue at 10 mg/kg, po bid measured 7 hrs post second dose by LC-MS analysis (reference value: 55.03 to 56.3 pmol).
The subject of test [3] is Mus musculus. The test can be described thus: In vivo inhibition of NAMPT in human NCI-H1155 cells xenografted in Harlan nude mouse assessed as NAD+ level per mg of tissue at 5 mg/kg, po bid measured 7 hrs post second dose by LC-MS analysis (reference value: 20.08 to 57.97 pmol).
In test [4] the test system is Mus musculus. Put plainly: In vivo inhibition of NAMPT in human A2780 cells xenografted in Harlan nude mouse assessed as NAD+ level per mg of tissue at 5 mg/kg, po bid measured 7 hrs post second dose by LC-MS analysis (reference value: 55.03 to 56.3 pmol).
Test [5] deals with Mus musculus. The test can be described thus: In vivo inhibition of NAMPT in human NCI-H1155 cells xenografted in Harlan nude mouse assessed as NAD+ level per mg of tissue at 20 mg/kg, po bid measured 7 hrs post second dose by LC-MS analysis (reference value: 20.08 to 57.97 pmol).
Test [6] relates to Mus musculus. Put plainly: In vivo inhibition of NAMPT in human A2780 cells xenografted in Harlan nude mouse assessed as NAD+ level per mg of tissue at 20 mg/kg, po bid measured 7 hrs post second dose by LC-MS analysis (reference value: 55.03 to 56.3 pmol).
Test [7] relates to Mus musculus. Put plainly: In vivo inhibition of NAMPT in human A2780 cells xenografted in Harlan nude mouse assessed as NAD+ level per mg of tissue at 8 mg/kg, po bid measured 7 hrs post second dose by LC-MS analysis (reference value: 55.03 to 56.3 pmol).
The test system of test [8] is Mus musculus. Put plainly: In vivo inhibition of NAMPT in human NCI-H1155 cells xenografted in Harlan nude mouse assessed as NAD+ level per mg of tissue at 16 mg/kg, po bid measured 7 hrs post second dose by LC-MS analysis (reference value: 20.08 to 57.97 pmol).
The subject of test [9] is Mus musculus. Put plainly: In vivo inhibition of NAMPT in human NCI-H1155 cells xenografted in Harlan nude mouse assessed as NAD+ level per mg of tissue at 8 mg/kg, po bid measured 7 hrs post second dose by LC-MS analysis (reference value: 20.08 to 57.97 pmol).
For test [10], the system named is Mus musculus. The test can be described thus: In vivo inhibition of NAMPT in human A2780 cells xenografted in Harlan nude mouse assessed as NAD+ level per mg of tissue at 32 mg/kg, po bid measured 7 hrs post second dose by LC-MS analysis (reference value: 55.03 to 56.3 pmol).
The test system of test [11] is Mus musculus. Put plainly: In vivo inhibition of NAMPT in human A2780 cells xenografted in Harlan nude mouse assessed as NAD+ level per mg of tissue at 16 mg/kg, po bid measured 7 hrs post second dose by LC-MS analysis (reference value: 55.03 to 56.3 pmol).
Test [12] deals with Mus musculus. The test can be described thus: In vivo inhibition of NAMPT in human NCI-H1155 cells xenografted in Harlan nude mouse assessed as NAD+ level per mg of tissue at 32 mg/kg, po bid measured 7 hrs post second dose by LC-MS analysis (reference value: 20.08 to 57.97 pmol).

Two molecules from ChEMBL document CHEMBL3585268, “Treatment of Cancer with NAMPT Inhibitors” (2015) can be followed below.

In the case of `CC(C)(O)CS(=O)(=O)Nc1ccc2c(c1)CCN(C(=O)COc1cccnc1)C2`, the Activity was 3.63 pmol in test [1]; 2.55 pmol in test [2]; 7.48 pmol in test [3]; 5.04 pmol in test [4]; 1.82 pmol in test [5]; 3.29 pmol in test [6].
Consider `COCCS(=O)(=O)Nc1ccc2c(c1)CCN(C(=O)COc1cccnc1)C2`, for which the Activity in test [7] is given as 3.97 pmol; in [8], 1.98 pmol; in test [9] it was 5.19 pmol; in test [10], 6.38 pmol; in test [11], 6.52 pmol; in [12], 0.84 pmol.
